Results reported in patent US10624845B2 (The Procter & Gamble Company, priority 2015, dated 2020).

How the values were obtained:
in vitro = conditions: human
[1] = test system: buccal tissue (EpiOral® tissues); conditions: for Average Apparent Permeability Coefficient Papp: donor pH 9.0, receiver pH 7.4, co-dosed 100 μM (caffeine 50 μM), n=6
[2] = test system: buccal tissue (EpiOral® tissues); experiment: Permeability Enhancer Assay (Permeability Enhancer Test); conditions: pH 5.0; reference […]10^−6 cm/s
Text: The donor side was not sampled and donor concentration was not measured.

| Structure (SMILES) | Average Apparent Permeability Coefficient Papp [1] | effect of the enhancer on the Papp of diphenhydramine versus reference Papp from the Permeability Test [2] | also measured |
| --- | --- | --- | --- |
| CC(C)NCC(O)COc1cccc2ccccc12 (stereo not drawn) [Propranolol] | 21.5 ± 4.66 10^−6 cm/s |  | Papp at 120 min, 100 μM (in vitro; pH 5): 1.45 ×10⁻⁶ cm/s; Papp at 120 min, 100 μM (in vitro; pH 7.4): 9.35 ×10⁻⁶ cm/s; Papp at 120 min, 100 μM (in vitro; pH 9): 21.5 ×10⁻⁶ cm/s |
| CCCCCCCCCC(=O)[O-].[Na+] [Sodium Caprate] |  | higher |  |
| CCCCCCCCCCCCCCCC[n+]1ccccc1 [Cetylpyridinium chloride] |  | higher |  |
| CCCCCCCCCCCCOS(=O)(=O)[O-].[Na+] [SDS, sodium dodecyl sulfate] |  | lower |  |
| Cn1c(=O)c2c(ncn2C)n(C)c1=O [Caffeine] | 33.3 ± 3.55 10^−6 cm/s |  | change of Papp at pH 9.0 compared to that at pH 5.0 and 7.4 ([1]; pH 9.0 vs pH 5.0 and 7.4): only moderately increased |
